Patent US9717745B2, “Pharmaceutical compositions and their use for treatment of cancer and autoimmune diseases” (ZHEJIANG DTRM BIOPHARMA CO. LTD., priority 2015, dated 2017)
Where two headings read alike, the source gives them in different places. Marks after values point to notes of the source that are not given here.

Legend:
[1] = Collagen-induced arthritis (CIA) model in male DBA/1 mice; type: in vivo; design: Clinical Score (Mean) / Pathological score: Inflammatory cell infiltration / Pathological score: Pannus growth / Pathological score: Cartilage injury / Pathological score: Bone resorption / Pathological score: Total: scale not given here; conditions: for Clinical Score (Mean): Dexamethasone 0.2 mg/kg; for Clinical score of CIA mice model (in words): FIG. 15
Method: Collagen-Induced Arthritis (CIA) Model:
The combination of Compounds 3 and 12 was evaluated in collagen induced arthritis (CIA) mouse model in Male DBA/1 mice. The animals were divided into 8 groups, including a normal, a vehicle, […] treatment groups: All animals (except the normal group) were immunized with 200 μg of bovine collagen (type II) on day 0 and day 21. Seven days (day 28) after boosting immunization, animals started to show symptoms of disease with an average clinical score around 1. […] The treatments were given orally for 2 consecutive weeks. Body weight and clinical score were monitored through the study (recorded three times a week started after second immunization). At the end of the study, animals were euthanized and both hind paws were collected for histopathology analysis.

[2] = tested on: TMD-8 cell line; assay: Inhibition assay of tumor cell activity (cell viability), TMD-8; type: cell-based, human; conditions: 48 hours incubation
Method: Inhibition Assay of Tumor Cell Activity:
Tumor cells (TMD-8, DoHH2 and WSU-DLCL2) were transferred and attached to 96-well plates. After one night, blank buffer and selected concentrations (0.01 nM-100 μM) of the test compound solution were added. After 48 hours incubation, CellTiter-Go was added to lyse the cells. Recording luminescent signal and calculate the percent inhibition of cell viability.

[3] = Adjuvant-induced arthritis (AA/AIA) model in female Lewis rats; type: in vivo; conditions: for Paw volume (Mean): 11 (3 mg/kg) BID positive control, oral from day 13; for Paw volume of AA rats model (in words): FIG. 13
Method: Adjuvant-Induced Arthritis AA Model:
The combination of Compounds 3 and 14 was evaluated in adjuvant-induced arthritis (AA) model in female Lewis rats. All rats except the normal group were immunized with complete Freund's adjuvant (CFA) subcutaneously at the left hind paw to induce arthritis at day 0. At 6 days post immunization, some rats started to display clinical symptoms of arthritis, e.g. erythema and swelling. […] The treatments were given orally for 3 consecutive weeks. The body weight, paw volume and clinical score were monitored every other day after day 13 throughout the course of the study. At the terminal point, right hind paws were collected for histopathology analysis with H.E. staining.

[4] = tested on: WSU-DLCL2 tumor cells; assay: Inhibition of tumor growth in vivo, resistant WSU-DLCL2 xenograft SCID mouse model; design: species or system mice; conditions: FIG. 8
Method: (§1) Inhibition Study of Tumor Growth In Vivo:
(§2) SCID mice or nude mice (weighing about 18 g at the beginning of the experiment) were randomly divided into groups by the software in order to achieve close average weights between groups and control the bias within the allowable range. The mice were injected BTK cell lines (TMD-8, WSU-DLCL2 and DoHH-2) for tumor formation. Inhibitors were administered orally once or twice a day, a total of 14 days, 21 days or 28 days. Body weights and tumor volume were recorded.
(§3) Xenograft Tumor Models Inoculated with TMD-8, or DoHH2, or WSU-DLCL2 Tumor Cell Lines:
(§4) TMD-8 is a sensitive human diffuse large B-cell lymphoma cell line, and DoHH2 is a more difficult to treat human follicular lymphoma cell line, while WSU-DLCL2 is a multi-drug resistant (MDR) human non-Hodgkin's lymphoma cell line.
The TMD-8, DoHH2, WSU-DLCL2 tumor cells were maintained in vitro as a suspension culture in RPMI-1640 medium supplemented with 10% heat inactivated fetal calf serum at 37° C. in an atmosphere of 5% CO2 in air. The tumor cells were routinely subcultured twice weekly. The cells growing in an exponential growth phase were harvested and counted for tumor inoculation. […] Animal body weight and tumor volume were measured every 2- or 3-days throughout the treatment.

[5] = tested on: WSU-DLCL2 tumor cells; conditions: oral gavage to mice, 480 mg/kg/day, Knutson et al. 2014, cited from earlier work
[6] = Collagen-induced arthritis (CIA) model in male DBA/1 mice; type: in vivo; design: scale not given here; conditions: CIA study, 14 alone, 0.15 mg/kg QD, Mean ± SEM
[7] = tested on: TMD-8 tumor cells; assay: Inhibition of tumor growth in vivo, TMD-8 lymphoma xenograft SCID mouse model; conditions: TMD-8 mice model, oral
Method: as §1, §2, §3
as §4, with “line. Drug combination therapies provide better efficacies in all three tumor models than single targeted agent alone.” for “line.”
The TMD-8, DoHH2, WSU-DLCL2 tumor cells were maintained in vitro as a suspension culture in RPMI-1640 medium supplemented with 10% heat inactivated fetal calf serum at 37° C. in an atmosphere of 5% CO2 in air. The tumor cells were routinely subcultured twice weekly. The cells growing in an exponential growth phase were harvested and counted for tumor inoculation. Each mouse was inoculated subcutaneously at the right flank with the tumor cells (10×10^6) in 0.2 ml of PBS with Matrigel (1:1) for tumor development. The treatments were started after the average tumor size reached approximately 100-200 mm^3. Each group consisted of 6-10 tumor-bearing mice. The testing article (vehicle, compound or combination) was orally administrated to the mice according to the predetermined doses for 14-days or 21-days. Animal body weight and tumor volume were measured every 2- or 3-days throughout the treatment.

[8] = CIA study, Left hind paw, Dexamethasone 0.2 mg/kg QD, Mean ± SEM
[9] = CIA study, Right hind paw, Dexamethasone 0.2 mg/kg QD, Mean ± SEM
[10] = AA study, 11, 3 mg/kg, Mean ± SEM

For `C[C@@H]1C[C@H]2[C@@H]3CCC4=CC(=O)C=C[C@]4(C)[C@@]3(F)[C@@H](O)C[C@]2(C)[C@@]1(O)C(=O)CO` [Dexamethasone], the “Pathological score: Total” value ([1]; CIA study, Dexamethasone 0.2 mg/kg QD, Mean ± SEM) was 0.00 ± 0.00, the “Pathological score: Bone resorption” value [1, 8] was 0.00 ± 0.00 and the “Pathological score: Cartilage injury” value [1, 8] was 0.00 ± 0.00. For the same compound, the “Pathological score: Inflammatory cell infiltration” value [1, 8] was 0.00 ± 0.00, the “Pathological score: Pannus growth” value [1, 8] was 0.00 ± 0.00 and the “Pathological score: Bone resorption” value [1, 9] was 0.00 ± 0.00. For the same compound, the “Pathological score: Cartilage injury” value [1, 9] was 0.00 ± 0.00, the “Pathological score: Inflammatory cell infiltration” value [1, 9] was 0.00 ± 0.00 and the “Pathological score: Pannus growth” value [1, 9] was 0.00 ± 0.00. The “Clinical Score (Mean)” value ([1]; CIA study, day 21 after first immunization) was 0.00, the “Clinical Score (Mean)” value ([1]; CIA study, day 32) was 0.60*** and the “Clinical Score (Mean)” value ([1]; CIA study, day 39) was 0.40***. For the same compound, the “Clinical Score (Mean)” value ([1]; CIA study, day 42) was 0.20***.

With `C[C@@H]1CCN(C(=O)CC#N)C[C@@H]1N(C)c1ncnc2[nH]ccc12` [Compound 11, Tofactinib] the “Inhibition of individual compound on TMD-8 cell line (Inh %) AVG” value (from here on “Inhibition … (Inh %) AVG”) ([2]; 0.01 uM) was 6.02%, the “Inhibition … (Inh %) AVG” value ([2]; 0.1 uM) was 1.31% and the “Inhibition … (Inh %) AVG” value ([2]; 1 uM) was 6.66%. The “Pathological score: Bone resorption” value [3, 10] was 0.5 ± 0.22, the “Pathological score: Cartilage injury” value [3, 10] was 0.2 ± 0.20 and the “Pathological score: Inflammatory cell infiltration” value [3, 10] was 1.9 ± 0.18. The “Pathological score: Pannus growth” value [3, 10] was 0.4 ± 0.22, the “Pathological score: Total” value [3, 10] was 3.0 ± 0.73 and the “Paw volume (Mean)” value ([3]; Day 0) was 1.00 mL. For the same compound, the “Paw volume (Mean)” value ([3]; Day 17) was 1.54*** mL, the “Paw volume (Mean)” value ([3]; Day 26) was 1.37*** mL and the “Paw volume (Mean)” value ([3]; Day 28) was 1.33*** mL. For the same compound, the “Paw volume (Mean)” value ([3]; Day 31) was 1.23*** mL and the “Paw volume (Mean)” value ([3]; Day 33) was 1.23*** mL.

For `C=CC(=O)N1CC[C@@H](n2nc(-c3ccc(Oc4c(F)c(F)cc(F)c4F)cc3F)c3c(N)ncnc32)C1` [Compound 3, 1-((R)-3-(4-amino-3-(2-fluoro-4-(2,3,5,6-tetrafluorophenoxy)phenyl)-1H-pyrazolo[3,4-d]pyrimidin-1-yl)pyrrolidin-1-yl)prop-2-en-1-one], the “Efficacy in WSU-DLCL2 non-Hodgkin's lymphoma mice model (in words)” value [4] was “in line with the efficacy of Ibrutinib”, the “Paw volume of AA rats model (in words)” value [3] was “treatment effects are absent” and the “Clinical score of CIA mice model (in words)” value [1] was “treatment effects are absent”.

In the case of `CCN(c1cc(-c2ccc(CN3CCOCC3)cc2)cc(C(=O)NCc2c(C)cc(C)[nH]c2=O)c1C)C1CCOCC1` [EPZ-6438], the “Tumor growth inhibition in WSU-DLCL tumor model (in words)” value [5] is given as “achieved a similar effect” and the “Tumor growth inhibition in WSU-DLCL tumor model (in words)” value ([5]; listed as EZ-6438) is given as “inhibited tumor growth”.

For `CN(Cc1cnc2nc(N)nc(N)c2n1)c1ccc(C(=O)N[C@@H](CCC(=O)O)C(=O)O)cc1` [Compound 18, Methotrexate], the “Inhibition … (Inh %) AVG” value ([2]; 0.01 uM) was −8.45%, the “Inhibition … (Inh %) AVG” value ([2]; 0.1 uM) was 32.04% and the “Inhibition … (Inh %) AVG” value ([2]; 1 uM) was 39.55%.

For `CO[C@H]1C[C@@H]2CC[C@@H](C)[C@@](O)(O2)C(=O)C(=O)N2CCCC[C@H]2C(=O)O[C@H]([C@H](C)C[C@@H]2CC[C@@H](OCCO)[C@H](OC)C2)CC(=O)[C@H](C)/C=C(\C)[C@@H](O)[C@@H](OC)C(=O)[C@H](C)C[C@H](C)/C=C/C=C/C=C/1C` [Compound 14, Everolimus], the “Pathological score: Bone resorption” value ([6]; Left hind paw) was 1.80 ± 0.61, the “Pathological score: Bone resorption” value ([6]; Right hind paw) was 2.00 ± 0.67 and the “Days of treatment to tumor disappearance / complete tumor regression” value [7] was 15 days. The “Tumor disappearance (in words)” value [7] was “complete disappearance of tumor grafts”, the “Tumor rebound after treatment was stopped” value [7] was “tumor rebounded” and the “Tumor rebound after treatment was stopped” value ([7]; listed as Everolimus) was “quickly rebounded”. For the same compound, the “Pathological score: Bone resorption” value ([3]; AA study, 14 alone, 0.5 mg/kg, Mean ± SEM) was 3.5 ± 0.17, the “Paw volume of AA rats model (in words)” value [3] was “treatment effects are absent” and the “Clinical score of CIA mice model (in words)” value [1] was “treatment effects are absent”.
